# Reference: patent US20140274883A1, “NOVEL ANTIVIRAL COMPOUNDS FROM MARINE EXTRACTS” (priority 2008, published 2014)
# Test system: influenza A/Wyoming/03/2003 (H3N2)
# Experiment: Plaque reduction assay in MDCK cell monolayers
# Type: cell-based, influenza virus
# Conditions: 5 μg/mL drug control, 72 h
compound,measurement,value
"NC(=O)c1ncn([C@@H]2O[C@H](CO)[C@@H](O)[C@H]2O)n1 [Ribavirin, ribavirin]",plaque formation,completely inhibits the formation of plaques
